Source: US10738004B2, “Cyclic compound” (Takeda Pharmaceutical Company Limited, priority 2016, dated 2020)

Assays:
TLR4 = molecular target: T1, TLR4 (Mus musculus, UniProt Q9QUK6); experiment: Suppressive effect on NO production (LPS-stimulated RAW264.7); assay type: cell-based; settings: mouse macrophage cell line RAW264.7; compound final concentration 10 nM; LPS 1.25 ng/ml + mouse interferon gamma 0.2 ng/ml; nitrite ion in culture supernatant (DAN fluorescence)
T1 construct: measured using mouse macrophage cell line RAW264.7; endogenous in cells; host or cells: RAW264.7 (mouse macrophage cell line)
T1 sequence (Q9QUK6 26-835): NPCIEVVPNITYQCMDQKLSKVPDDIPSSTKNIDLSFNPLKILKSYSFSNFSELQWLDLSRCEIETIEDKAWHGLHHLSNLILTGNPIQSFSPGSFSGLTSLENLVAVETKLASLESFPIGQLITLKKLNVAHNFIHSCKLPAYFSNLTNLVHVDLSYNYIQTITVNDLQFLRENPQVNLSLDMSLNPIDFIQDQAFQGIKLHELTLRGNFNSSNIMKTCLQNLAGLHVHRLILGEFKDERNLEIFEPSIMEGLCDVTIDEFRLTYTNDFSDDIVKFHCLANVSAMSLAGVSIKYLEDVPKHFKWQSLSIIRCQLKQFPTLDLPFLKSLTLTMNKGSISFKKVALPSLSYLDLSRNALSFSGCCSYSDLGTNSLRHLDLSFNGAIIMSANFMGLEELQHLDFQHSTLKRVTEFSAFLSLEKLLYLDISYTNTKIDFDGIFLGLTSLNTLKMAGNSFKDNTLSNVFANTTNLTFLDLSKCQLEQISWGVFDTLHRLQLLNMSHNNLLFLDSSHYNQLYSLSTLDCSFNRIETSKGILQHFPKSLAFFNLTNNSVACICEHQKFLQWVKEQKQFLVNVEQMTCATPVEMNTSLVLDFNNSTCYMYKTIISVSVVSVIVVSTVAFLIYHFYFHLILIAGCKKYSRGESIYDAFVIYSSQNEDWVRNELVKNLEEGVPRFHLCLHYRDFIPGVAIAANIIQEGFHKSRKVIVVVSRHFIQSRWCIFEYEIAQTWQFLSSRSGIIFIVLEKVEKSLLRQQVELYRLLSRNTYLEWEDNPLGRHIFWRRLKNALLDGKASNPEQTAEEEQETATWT
T1 sequence (Q9JHF9 19-160 partner): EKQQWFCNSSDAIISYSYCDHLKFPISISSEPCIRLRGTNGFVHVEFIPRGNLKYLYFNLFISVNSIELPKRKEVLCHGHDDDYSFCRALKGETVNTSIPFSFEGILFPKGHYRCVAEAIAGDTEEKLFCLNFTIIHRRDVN
Protocol: The suppressive activity on TLR4 was measured using mouse macrophage cell line RAW264.7 and by an inhibition ratio by the test compound (compound of Example 1) against NO produced by the addition of lipopolysaccharide (LPS). The cells were prepared at 2×10^6 cells/ml in RPMI-1640 medium (phenol red free) supplemented with 10% inactivated fetal calf serum, and seeded in a 384-well plate at 6×10^4 cells/30 μL per well. The cells were cultured overnight at 37° C. under 5% CO2/95% air. The test compound dissolved in DMSO was diluted 200-fold with RPMI-1640 medium to a compound concentration of […]. The prepared test compound (10 μL) was added to the cells (final concentration 10 nM), and LPS (Sigma Ltd.) and mouse interferon gamma (Wako Pure Chemical Industries, Ltd.) were respectively added by 10 μL to the final concentrations of 1.25 ng/ml and 0.2 ng/ml. After further culturing overnight, the concentration of nitrite ion (stable metabolite of NO) in the culture supernatant was measured and used as an index of NO production. The nitrite ion concentration was quantified by adding 10 μL of a solution of 20 μg/mL 2,3-diaminonaphthalene (DAN) in 0.2N HCl to the culture supernatant (20 μL), incubating the mixture at room temperature for 10 min, adding 0.5N NaOH (10 μL), and measuring 460 nm (excitation wavelength 355 nm) fluorescence value by a plate reader EnVision (PerkinElmer). […]

melting point: 155 to 156 °C
NO production suppression effect at 10 nM (% inhibition) (TLR4): 98 % inhibition
Structure (SMILES): CCOC(=O)C1=C[C@@H](O)CC[C@H]1S(=O)(=O)Cc1ccc(F)cc1Cl (single isomer, unassigned) [Example 1]
